Measurements published in ChEMBL document CHEMBL3046912, “Effectiveness of 1,3-dichloropropene as an alternative to methyl bromide in rotations of tomato (Solanum lycopersicum) and cucumber (Cucumis sativus) in China” (2012).
Active and inactive are the calls of the source. No cut-off for these calls is given here.

Assays:
[1] = tested on: Solanum lycopersicum; test: Increase in plant height of Solanum lycopersicum (tomato) exposed to 90 L/ha compound fumigation treatment measured 30 days after compound treatment (reference value: 28.4 cm); assay type: functional
[2] = tested on: Solanum lycopersicum; test: Increase in plant height of Solanum lycopersicum (tomato) exposed to 120 L/ha compound fumigation treatment measured 30 days after compound treatment (reference value: 28.4 cm); assay type: functional
[3] = tested on: Solanum lycopersicum; test: Increase in plant height of Solanum lycopersicum (tomato) exposed to 120 L/ha compound fumigation treatment measured 50 days after compound treatment (reference value: 86.2 cm); assay type: functional
[4] = tested on: Cucumis sativus; test: Increase in plant height of Cucumis sativus (cucumber) exposed to 180 L/ha compound fumigation treatment measured 30 days after compound treatment (reference value: 85.6 cm); assay type: functional
[5] = tested on: Cucumis sativus; test: Increase in plant height of Cucumis sativus (cucumber) exposed to 90 L/ha compound fumigation treatment measured 30 days after compound treatment (reference value: 85.6 cm); assay type: functional
[6] = tested on: Cucumis sativus; test: Increase in plant height of Cucumis sativus (cucumber) exposed to 180 L/ha compound fumigation treatment measured 50 days after compound treatment (reference value: 103.2 cm); assay type: functional
[7] = tested on: Cucumis sativus; test: Increase in plant height of Cucumis sativus (cucumber) exposed to 120 L/ha compound fumigation treatment measured 50 days after compound treatment (reference value: 103.2 cm); assay type: functional
[8] = tested on: Cucumis sativus; test: Increase in plant height of Cucumis sativus (cucumber) exposed to 90 L/ha compound fumigation treatment measured 50 days after compound treatment (reference value: 103.2 cm); assay type: functional
[9] = tested on: Arenaria serpyllifolia; test: Herbicidal activity against Arenaria serpyllifolia in cucumber plants fields exposed to 90 L/ha compound fumigation treatment assessed as hand weeding time per plot (reference value: 258.3 hr/ha); assay type: functional
[10] = tested on: Capsella bursa-pastoris; test: Herbicidal activity against Capsella bursa-pastoris in cucumber plants fields exposed to 120 L/ha compound fumigation treatment assessed as hand weeding time per plot (reference value: 258.3 hr/ha); assay type: functional
[11] = tested on: Arenaria serpyllifolia; test: Herbicidal activity against Arenaria serpyllifolia in cucumber plants fields exposed to 180 L/ha compound fumigation treatment assessed as hand weeding time per plot (reference value: 258.3 hr/ha); assay type: functional
[12] = tested on: Digitaria sanguinalis; test: Herbicidal activity against Digitaria sanguinalis (hairy crabgrass) in cucumber plants fields exposed to 180 L/ha compound fumigation treatment assessed as hand weeding time per plot (reference value: 258.3 hr/ha); assay type: functional
[13] = tested on: Botrytis cinerea; test: Fungicidal activity against Botryotinia fuckeliana-induced withering in tomato plants at 120 to 180 L/ha measured 20 to 60 days post compound treatment; assay type: functional, organism-based
[14] = tested on: Meloidogyne incognita; test: Nematicidal activity against Meloidogyne incognita (root-knot nematode) in cucumber growing fields exposed to 90 L/ha compound fumigation treatment assessed as root galling index measured 20 days after compound treatment (reference value: 8.72 root galling index); assay type: functional
[15] = tested on: Solanum lycopersicum; test: Increase in crop yield in Cucumis sativus (cucumber) plants exposed to 180 L/ha compound fumigation treatment assessed as marketable yield fruit yield (reference value: 65.3 ton/ha); assay type: functional
[16] = tested on: Solanum lycopersicum; test: Increase in crop yield in Solanum lycopersicum (tomato) plants exposed to 90 L/ha compound fumigation treatment assessed as marketable yield fruit yield (reference value: 51.3 ton/ha); assay type: functional
[17] = tested on: Solanum lycopersicum; test: Increase in crop yield in Solanum lycopersicum (tomato) plants exposed to 120 L/ha compound fumigation treatment assessed as marketable yield fruit yield (reference value: 51.3 ton/ha); assay type: functional
[18] = tested on: Digitaria sanguinalis; test: Herbicidal activity against Digitaria sanguinalis (hairy crabgrass) in tomato plants fields exposed to 120 L/ha compound fumigation treatment assessed as hand weeding time per plot (reference value: 243.3 hr/ha); assay type: functional
[19] = tested on: Capsella bursa-pastoris; test: Herbicidal activity against Capsella bursa-pastoris in tomato plants fields exposed to 120 L/ha compound fumigation treatment assessed as hand weeding time per plot (reference value: 243.3 hr/ha); assay type: functional
[20] = tested on: Capsella bursa-pastoris; test: Herbicidal activity against Capsella bursa-pastoris in tomato plants fields exposed to 180 L/ha compound fumigation treatment assessed as hand weeding time per plot (reference value: 243.3 hr/ha); assay type: functional
[21] = tested on: Meloidogyne incognita; test: Nematicidal activity against Meloidogyne incognita (root-knot nematode) in tomato growing fields exposed to 90 L/ha compound fumigation treatment assessed as root galling index measured 20 days after compound treatment (reference value: 8.51 root galling index); assay type: functional
[22] = tested on: Solanum lycopersicum; test: Increase in crop yield in Cucumis sativus (cucumber) plants exposed to 120 L/ha compound fumigation treatment assessed as medium fruit yield (reference value: 38.6 ton/ha); assay type: functional
[23] = tested on: Arenaria serpyllifolia; test: Herbicidal activity against Arenaria serpyllifolia in tomato plants fields exposed to 90 L/ha compound fumigation treatment assessed as hand weeding time per plot relative to untreated control; assay type: functional
[24] = tested on: Digitaria sanguinalis; test: Herbicidal activity against Digitaria sanguinalis (hairy crabgrass) in tomato plants fields exposed to 90 L/ha compound fumigation treatment assessed as hand weeding time per plot relative to untreated control; assay type: functional
[25] = tested on: Arenaria serpyllifolia; test: Herbicidal activity against Arenaria serpyllifolia in tomato plants fields exposed to 120 L/ha compound fumigation treatment assessed as hand weeding time per plot relative to untreated control; assay type: functional
[26] = tested on: Capsella bursa-pastoris; test: Herbicidal activity against Capsella bursa-pastoris in tomato plants fields exposed to 90 L/ha compound fumigation treatment assessed as hand weeding time per plot relative to untreated control; assay type: functional
[27] = tested on: Digitaria sanguinalis; test: Herbicidal activity against Digitaria sanguinalis (hairy crabgrass) in tomato plants fields exposed to 120 L/ha compound fumigation treatment assessed as hand weeding time per plot relative to untreated control; assay type: functional
[28] = tested on: Digitaria sanguinalis; test: Herbicidal activity against Digitaria sanguinalis (hairy crabgrass) in tomato plants fields exposed to 180 L/ha compound fumigation treatment assessed as hand weeding time per plot relative to untreated control; assay type: functional
[29] = tested on: Solanum lycopersicum; test: Increase in crop yield in Solanum lycopersicum (tomato) plants exposed to 90 L/ha compound fumigation treatment assessed as medium fruit yield (reference value: 32.3 ton/ha); assay type: functional
[30] = tested on: Solanum lycopersicum; test: Increase in crop yield in Solanum lycopersicum (tomato) plants exposed to 180 L/ha compound fumigation treatment assessed as medium fruit yield (reference value: 32.3 ton/ha); assay type: functional
[31] = tested on: Solanum lycopersicum; test: Increase in crop yield in Solanum lycopersicum (tomato) plants exposed to 120 L/ha compound fumigation treatment assessed as large fruit yield (reference value: 15.2 ton/ha); assay type: functional
[32] = tested on: Solanum lycopersicum; test: Increase in crop yield in Solanum lycopersicum (tomato) plants exposed to 90 L/ha compound fumigation treatment assessed as large fruit yield (reference value: 15.2 ton/ha); assay type: functional
[33] = tested on: Solanum lycopersicum; test: Increase in crop yield in Solanum lycopersicum (tomato) plants exposed to 180 L/ha compound fumigation treatment assessed as large fruit yield (reference value: 15.2 ton/ha); assay type: functional
[34] = tested on: Solanum lycopersicum; test: Increase in crop yield in Cucumis sativus (cucumber) plants exposed to 180 L/ha compound fumigation treatment assessed as extra-large fruit yield (reference value: 7.2 ton/ha); assay type: functional
[35] = tested on: Solanum lycopersicum; test: Increase in crop yield in Cucumis sativus (cucumber) plants exposed to 120 L/ha compound fumigation treatment assessed as extra-large fruit yield (reference value: 7.2 ton/ha); assay type: functional
[36] = tested on: Solanum lycopersicum; test: Increase in crop yield in Solanum lycopersicum (tomato) plants exposed to 180 L/ha compound fumigation treatment assessed as extra-large fruit yield (reference value: 3.8 ton/ha); assay type: functional
[37] = tested on: Arenaria serpyllifolia; test: Herbicidal activity against Arenaria serpyllifolia in cucumber plants fields exposed to 90 L/ha compound fumigation treatment assessed as hand weeding time per plot relative to untreated control; assay type: functional

In the case of `Cl/C=C/CCl` [1,3-DICHLOROPROPENE], the Activity [1] was 32.4 cm, the Activity [2] was 37.9 cm and the Activity [3] was 108.6 cm. For the same compound, the Activity [4] was 105.6 cm, the Activity [5] was 92.6 cm and the Activity [6] was 130.7 cm. For the same compound, the Activity [7] was 120.5 cm, the Activity [8] was 112.3 cm and the Time [9] was 90.5 hr/ha. The Time [10] was 74.4 hr/ha, the Time [11] was 62.3 hr/ha and the Time [12] was 62.3 hr/ha. The Activity [13] was “Active”, the Root_galling_index [14] was 4.28 and the Crop_yield [15] was 98.8 tons/ha. It also gave a Crop_yield [16] of 62.4 tons/ha, a Crop_yield [17] of 68.1 tons/ha and a Time [18] of 66.4 hr/ha. It also gave a Time [19] of 66.4 hr/ha, a Time [20] of 55.6 hr/ha and a Root_galling_index [21] of 3.28. The Crop_yield [22] was 49.1 tons/ha, the Activity [23] was 45% and the Activity [24] was 45%. The Activity [25] was 45%, the Activity [26] was 45% and the Activity [27] was 45%. It also gave an Activity [28] of 45%, a Crop_yield [29] of 38.7 tons/ha and a Crop_yield [30] of 45.3 tons/ha. For the same compound, the Crop_yield [31] was 19.2 tons/ha, the Crop_yield [32] was 18.9 tons/ha and the Crop_yield [33] was 22.6 tons/ha. It also gave a Crop_yield [34] of 14.8 tons/ha, a Crop_yield [35] of 12.1 tons/ha and a Crop_yield [36] of 8.4 tons/ha. It also gave an Activity [37] of 45%.
